Laboratory results as given in article PMC8776995 (Frontiers in Chemistry, 2022).
Where “and” joins values, the source holds several entries; their conditions need not be identical. Equal entries are not always repeated.

Legend:
wild-type EGFR = wild-type EGFR (Homo sapiens, UniProt P00533); experiment: EGFR kinase assay (ELISA); settings: for A450: raw ELISA absorbance
Procedure: The kinase enzyme of EGFR was purchased from Carna Bioscience (Kobe, Japan). A total of 10 ng/ml anti phosphotyrosine (PY713) antibody (abcam, Cambridge Science Park, United Kingdom) was precoated in 96-well ELISA plates. […] Then, a total of 3 μmol/L ATP was added and the reaction was continued for 2 h. […] After incubation, the wells were washed with PBS and then incubated with horseradish peroxidase (HRP)-conjugated streptavidin. The wells were visualized using 3,3′,5,5′-tetramethylbenzidine (TMB), and chromogenic reaction was ended with 2 mol/L H2SO4, the absorbance was read with a multimode plate reader (PerkinElmer, United States) at 450 nm.

H460 cells = experiment: CCK-8 antiproliferation assay, H460; settings: for Inhibitory efficacy: H460 cells
PC-9 cells = experiment: CCK-8 antiproliferation assay, PC-9; settings: Homo sapiens, PC-9, 48 h, read-out: IC50 (μM) PC-9
H1975 cells = experiment: CCK-8 antiproliferation assay, H1975; settings: for Inhibitory efficacy: H1975 cells
A549 cells = experiment: CCK-8 antiproliferation assay, A549
[1] = 8uM, given as fraction, Repeat 1-3

wild-type EGFR, sequence (P00533 25-1210): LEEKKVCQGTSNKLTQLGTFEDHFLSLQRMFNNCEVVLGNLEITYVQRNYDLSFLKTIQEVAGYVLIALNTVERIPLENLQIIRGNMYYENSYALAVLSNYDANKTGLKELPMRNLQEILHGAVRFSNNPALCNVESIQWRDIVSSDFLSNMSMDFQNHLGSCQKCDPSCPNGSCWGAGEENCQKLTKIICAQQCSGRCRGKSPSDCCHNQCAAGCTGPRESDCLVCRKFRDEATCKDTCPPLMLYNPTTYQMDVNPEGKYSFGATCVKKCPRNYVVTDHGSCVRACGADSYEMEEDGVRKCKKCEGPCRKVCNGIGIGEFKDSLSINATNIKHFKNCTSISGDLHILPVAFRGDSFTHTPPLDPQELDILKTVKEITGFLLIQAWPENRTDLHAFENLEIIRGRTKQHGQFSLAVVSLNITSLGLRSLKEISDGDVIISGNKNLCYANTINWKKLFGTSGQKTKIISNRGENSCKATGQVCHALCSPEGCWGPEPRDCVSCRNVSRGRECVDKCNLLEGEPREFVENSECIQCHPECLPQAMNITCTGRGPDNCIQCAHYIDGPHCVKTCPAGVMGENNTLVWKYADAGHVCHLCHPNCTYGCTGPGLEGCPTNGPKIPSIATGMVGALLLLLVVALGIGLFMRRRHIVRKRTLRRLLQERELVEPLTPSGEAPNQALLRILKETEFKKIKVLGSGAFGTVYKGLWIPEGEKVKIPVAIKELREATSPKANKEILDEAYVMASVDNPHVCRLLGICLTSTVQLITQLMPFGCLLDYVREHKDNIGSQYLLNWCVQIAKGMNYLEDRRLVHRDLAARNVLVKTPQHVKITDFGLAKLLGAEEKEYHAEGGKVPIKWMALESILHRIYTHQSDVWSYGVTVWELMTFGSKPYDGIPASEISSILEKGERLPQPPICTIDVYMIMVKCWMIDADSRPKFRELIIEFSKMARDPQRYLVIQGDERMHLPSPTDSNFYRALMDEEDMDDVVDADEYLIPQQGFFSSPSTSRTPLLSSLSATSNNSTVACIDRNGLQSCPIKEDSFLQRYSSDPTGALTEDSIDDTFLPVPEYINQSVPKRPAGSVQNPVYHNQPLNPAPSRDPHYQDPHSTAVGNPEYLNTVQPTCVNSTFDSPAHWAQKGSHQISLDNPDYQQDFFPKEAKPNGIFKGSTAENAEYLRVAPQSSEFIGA

IC50 (wild-type EGFR; IC50 (μM) EGFR, ELISA, 3 μmol/L ATP): 68 µM
inhibition at 100 fM (wild-type EGFR; concentration 0.0001 nM (reference for normalisation), one value per replicate column): 0%
inhibition at 30 pM (wild-type EGFR; concentration 0.03 nM, one value per replicate column): 11.8%
Inhibition (wild-type EGFR; concentration 0.03 nM, one value per replicate column, 3e-05 µM): 14.7465
inhibition at 0.0003 µM (wild-type EGFR; concentration 0.3 nM, one value per replicate column): 17.6%
Inhibition (wild-type EGFR; concentration 0.3 nM, one value per replicate column, 0.0003 µM): 17.0507
inhibition at 0.003 µM (wild-type EGFR; concentration 3 nM, one value per replicate column): 19.3%
Inhibition (wild-type EGFR; concentration 3 nM, one value per replicate column, 0.003 µM): 17.0507
inhibition at 0.03 µM (wild-type EGFR; concentration 30 nM, one value per replicate column): 37.4%
Inhibition (wild-type EGFR; concentration 30 nM, one value per replicate column, 0.03 µM): 28.1106
inhibition at 0.3 µM (wild-type EGFR; concentration 300 nM, one value per replicate column): 42.2%
Inhibition (wild-type EGFR; concentration 300 nM, one value per replicate column, 0.3 µM): 35.4839
inhibition at 3 µM (wild-type EGFR; concentration 3000 nM, one value per replicate column): 42.8%
Inhibition (wild-type EGFR; concentration 3000 nM, one value per replicate column, 3 µM): 36.8664
inhibition at 30 µM (wild-type EGFR; concentration 30000 nM, one value per replicate column): 44.9%
Inhibition (wild-type EGFR; concentration 30000 nM, one value per replicate column, 30 µM): 39.1705
A450 (wild-type EGFR; concentration 0.0001 nM): 0.398 and 0.464
A450 (wild-type EGFR; concentration 0.03 nM): 0.376 and 0.432
A450 (wild-type EGFR; concentration 0.3 nM): 0.365 and 0.427
A450 (wild-type EGFR; concentration 3 nM): 0.362 and 0.427
A450 (wild-type EGFR; concentration 30 nM): 0.328 and 0.403
A450 (wild-type EGFR; concentration 300 nM): 0.319 and 0.387
A450 (wild-type EGFR; concentration 3000 nM): 0.318 and 0.384
A450 (wild-type EGFR; concentration 30000 nM): 0.314 and 0.379
IC50 (H460 cells; Homo sapiens, NCI-H460, 48 h, read-out: IC50 (μM) H460, CCK-8, 48 h, average ± SD of three independent experiments): > 100 µM
IC50 (PC-9 cells): > 100 µM
melting point: 94 to 97 °C
IC50 (H1975 cells; Homo sapiens, NCI-H1975, 48 h, read-out: IC50 (μM) H1975, CCK-8, 48 h, average ± SD of three independent experiments): 16.8 ± 1.02 µM
IC50 (A549 cells; Homo sapiens, A549, 48 h, read-out: IC50 (μM) A549, CCK-8, 48 h, average ± SD of three independent experiments): > 100 µM
SMILES: COCCOc1cc2ncnc(Nc3cccc(-c4cn(Cc5ccccc5Br)nn4)c3)c2cc1OCCOC [e3, [6,7-Bis-(2-methoxy-ethoxy)-quinazolin-4-yl]-{3-[1-(2-bromo-benzyl)-1H-[1,2,3]triazol-4-yl]-phenyl}-amine]
Inhibitory efficacy (H460 cells; 1uM, given as fraction, Repeat 1-3): 0.2775 and 0.3081
Inhibitory efficacy (H460 cells; 2uM, given as fraction, Repeat 1-3): 0.3143 and 0.3387
Inhibitory efficacy (H460 cells; [1]): 0.3004 and 0.3491
inhibition at 1 µM (H460 cells; Homo sapiens, NCI-H460, read-out: Inhibitory efficacy, H460 cells, 1uM, given as fraction, Repeat 1-3): 30.3%
inhibition at 2 µM (H460 cells; Homo sapiens, NCI-H460, read-out: Inhibitory efficacy, H460 cells, 2uM, given as fraction, Repeat 1-3): 35%
inhibition at 8 µM (H460 cells; Homo sapiens, NCI-H460, read-out: Inhibitory efficacy, H460 cells, 8uM, given as fraction, Repeat 1-3): 29%
Inhibitory efficacy (H1975 cells; 4uM, given as fraction, Repeat 1-3): 0.09844 and 0.1507
Inhibitory efficacy (H1975 cells; [1]): 0.1976 and 0.2347
Inhibitory efficacy (H1975 cells; 16uM, given as fraction, Repeat 1-3): 0.494 and 0.5082
inhibition at 4 µM (H1975 cells; Homo sapiens, NCI-H1975, read-out: Inhibitory efficacy, H1975 cells, 4uM, given as fraction, Repeat 1-3): 11.4%
inhibition at 8 µM (H1975 cells; Homo sapiens, NCI-H1975, read-out: Inhibitory efficacy, H1975 cells, 8uM, given as fraction, Repeat 1-3): 25%
inhibition at 16 µM (H1975 cells; Homo sapiens, NCI-H1975, read-out: Inhibitory efficacy, H1975 cells, 16uM, given as fraction, Repeat 1-3): 44.1%
Inhibitory efficacy (A549 cells; A549 cells, 16uM, given as fraction, Repeat 1-3): 0.1506 and 0.2274
inhibition at 16 µM (A549 cells; Homo sapiens, A549, read-out: Inhibitory efficacy, A549 cells, 16uM, given as fraction, Repeat 1-3): 15.2%
